Experimental data taken from patent US9980943B2, “Methods of treating muscular dystrophy” (BOARD OF REGENTS OF THE NEVADA SYSTEM OF HIGHER EDUCATION, …, priority 2013, dated 2018).
Read-outs that look alike come from different tables or passages of the source.

What was measured:
Assay type in all cases: cell-based, mouse
[1] = test system: α7 integrin (LacZ reporter in α7βgal+/− myoblasts); assay: Myoblast α7+/LacZ integrin FDG assay (Burkin assay in myoblasts, 96-well); conditions: α7+/LacZ myoblasts, 96-well; for fold induction at 0.5 µM / fold induction at 1 µM / fold induction at 5 µM / fold induction at 10 µM / fold induction at 20 µM / fold induction at 40 µM: Mus musculus, Myoblast, 48 h
[2] = test system: α7 integrin (LacZ reporter in α7+/LacZ myotubes); assay: Myotube α7 integrin FDG assay (Burkin assay in myotubes, 96-well); conditions: myotubes; for fold induction at 0.5 µM / fold induction at 1 µM / fold induction at 5 µM / fold induction at 10 µM / fold induction at 20 µM / fold induction at 40 µM: Mus musculus, Myotube
[3] = test system: β-galactosidase in CMV-LacZ C2C12 myotubes; assay: CMV-LacZ secondary screen in C2C12 myotubes (β-Gal stabilizing assay); conditions: for CMV-LACZ in Myotubes (β-galactosidase activity relative to DMSO): CMV-LacZ C2C12 myotubes, 96-well format
Procedure, shortened: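 First, C2C12 myoblasts were transfected with a linearized CMV-LACZ vector and clonal lines selected by FDG β-gal assay. Then cells were exposed to compounds at 0.5, 1, 5, 10, 20 and 40 μM in 96-well format, two replicates each, and β-gal measured.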

[4] = 5 uM, C2C12 CMV-LacZ myotubes, fold relative to DMSO
[5] = 10 uM, C2C12 CMV-LacZ myotubes, fold relative to DMSO
[6] = 20 uM, C2C12 CMV-LacZ myotubes, fold relative to DMSO
[7] = 40 uM, C2C12 CMV-LacZ myotubes, fold relative to DMSO

COc1cc(C)c(NC(=O)COc2ccc3c(c2)OCO3)cc1C [MLS001223425-01]
fold induction at 0.5 µM ([1]; 0.5 uM, read-out: Burkin Assay in Myoblasts, signal relative to DMSO): 1.06
fold induction at 1 µM ([1]; 1 uM, read-out: Burkin Assay in Myoblasts, signal relative to DMSO): 1.08
fold induction at 5 µM ([1]; 5 uM, read-out: Burkin Assay in Myoblasts, signal relative to DMSO): 1.06
fold induction at 10 µM ([1]; 10 uM, read-out: Burkin Assay in Myoblasts, signal relative to DMSO): 1.15
fold induction at 20 µM ([1]; 20 uM, read-out: Burkin Assay in Myoblasts, signal relative to DMSO): 1.22
fold induction at 40 µM ([1]; 40 uM, read-out: Burkin Assay in Myoblasts, signal relative to DMSO): 1.13
fold induction at 0.5 µM ([2]; 0.5 uM, read-out: Burkin Assay in Myotubes, α7 integrin LacZ reporter signal relative to DMSO): 1.08
fold induction at 1 µM ([2]; 1 uM, read-out: Burkin Assay in Myotubes, α7 integrin LacZ reporter signal relative to DMSO): 1.22
fold induction at 5 µM ([2]; 5 uM, read-out: Burkin Assay in Myotubes, α7 integrin LacZ reporter signal relative to DMSO): 0.914
fold induction at 10 µM ([2]; 10 uM, read-out: Burkin Assay in Myotubes, α7 integrin LacZ reporter signal relative to DMSO): 1.38
fold induction at 20 µM ([2]; 20 uM, read-out: Burkin Assay in Myotubes, α7 integrin LacZ reporter signal relative to DMSO): 1.14
fold induction at 40 µM ([2]; 40 uM, read-out: Burkin Assay in Myotubes, α7 integrin LacZ reporter signal relative to DMSO): 1.18
fold induction at 5 µM ([3]; Mus musculus, C2C12, read-out: CMV-LACZ in Myotubes, signal relative to DMSO, 5 uM, C2C12 CMV-LacZ myotubes, fold relative to DMSO): 0.956
fold induction at 10 µM ([3]; Mus musculus, C2C12, read-out: CMV-LACZ in Myotubes, signal relative to DMSO, 10 uM, C2C12 CMV-LacZ myotubes, fold relative to DMSO): 1.04
fold induction at 20 µM ([3]; Mus musculus, C2C12, read-out: CMV-LACZ in Myotubes, signal relative to DMSO, 20 uM, C2C12 CMV-LacZ myotubes, fold relative to DMSO): 0.979
fold induction at 40 µM ([3]; Mus musculus, C2C12, read-out: CMV-LACZ in Myotubes, signal relative to DMSO, 40 uM, C2C12 CMV-LacZ myotubes, fold relative to DMSO): 1.01

N#Cc1ccc(OCC(O)CS(=O)(=O)c2ccccc2)cc1 (stereo not drawn) [MLS000721584-01]
Burkin Assay in Myoblasts, signal relative to DMSO ([1]; 0.5 uM): 0.933
Burkin Assay in Myoblasts, signal relative to DMSO ([1]; 1 uM): 0.8525
Burkin Assay in Myoblasts, signal relative to DMSO ([1]; 5 uM): 1.03
Burkin Assay in Myoblasts, signal relative to DMSO ([1]; 10 uM): 0.9846
Burkin Assay in Myoblasts, signal relative to DMSO ([1]; 20 uM): 0.8663
Burkin Assay in Myoblasts, signal relative to DMSO ([1]; 40 uM): 0.7628
Burkin Assay in Myotubes, α7 integrin LacZ reporter signal relative to DMSO ([2]; 0.5 uM): 0.9148
Burkin Assay in Myotubes, α7 integrin LacZ reporter signal relative to DMSO ([2]; 1 uM): 0.9833
Burkin Assay in Myotubes, α7 integrin LacZ reporter signal relative to DMSO ([2]; 5 uM): 0.8802
Burkin Assay in Myotubes, α7 integrin LacZ reporter signal relative to DMSO ([2]; 10 uM): 0.8867
Burkin Assay in Myotubes, α7 integrin LacZ reporter signal relative to DMSO ([2]; 20 uM): 0.9155
Burkin Assay in Myotubes, α7 integrin LacZ reporter signal relative to DMSO ([2]; 40 uM): 0.9927
CMV-LACZ in Myotubes, signal relative to DMSO [3, 4]: 0.9573
CMV-LACZ in Myotubes, signal relative to DMSO [3, 5]: 0.9071
CMV-LACZ in Myotubes, signal relative to DMSO [3, 6]: 1.133
CMV-LACZ in Myotubes, signal relative to DMSO [3, 7]: 1.1019

CC(=O)c1cccc(NC(=O)C(=O)Nc2cccc3ccccc23)c1 [MLS000765108-01]
fold induction at 0.5 µM ([1]; 0.5 uM, read-out: Burkin Assay in Myoblasts, value relative to DMSO): 1.17
fold induction at 1 µM ([1]; 1 uM, read-out: Burkin Assay in Myoblasts, value relative to DMSO): 1.12
fold induction at 5 µM ([1]; 5 uM, read-out: Burkin Assay in Myoblasts, value relative to DMSO): 1.2
fold induction at 10 µM ([1]; 10 uM, read-out: Burkin Assay in Myoblasts, value relative to DMSO): 1.11
fold induction at 20 µM ([1]; 20 uM, read-out: Burkin Assay in Myoblasts, value relative to DMSO): 1.04
fold induction at 40 µM ([1]; 40 uM, read-out: Burkin Assay in Myoblasts, value relative to DMSO): 1.03
fold induction at 0.5 µM ([2]; 0.5 uM, read-out: Burkin Assay in Myotubes (signal relative to DMSO)): 0.872
fold induction at 1 µM ([2]; 1 uM, read-out: Burkin Assay in Myotubes (signal relative to DMSO)): 1.02
fold induction at 5 µM ([2]; 5 uM, read-out: Burkin Assay in Myotubes (signal relative to DMSO)): 1.06
fold induction at 10 µM ([2]; 10 uM, read-out: Burkin Assay in Myotubes (signal relative to DMSO)): 0.609
fold induction at 20 µM ([2]; 20 uM, read-out: Burkin Assay in Myotubes (signal relative to DMSO)): 0.922
fold induction at 40 µM ([2]; 40 uM, read-out: Burkin Assay in Myotubes (signal relative to DMSO)): 0.707
CMV-LACZ in Myotubes (β-galactosidase activity relative to DMSO) ([3]; 5 uM): 1.177
CMV-LACZ in Myotubes (β-galactosidase activity relative to DMSO) ([3]; 10 uM): 1.099
CMV-LACZ in Myotubes (β-galactosidase activity relative to DMSO) ([3]; 20 uM): 0.9927
CMV-LACZ in Myotubes (β-galactosidase activity relative to DMSO) ([3]; 40 uM): 0.97

COc1ccc(CNC(=O)COC(=O)CCc2c[nH]c3ccccc23)cc1 [MLS001033202-01]
Burkin Assay in Myoblasts, signal relative to DMSO ([1]; 0.5 uM): 0.6682
Burkin Assay in Myoblasts, signal relative to DMSO ([1]; 1 uM): 0.9153
Burkin Assay in Myoblasts, signal relative to DMSO ([1]; 5 uM): 0.9952
Burkin Assay in Myoblasts, signal relative to DMSO ([1]; 10 uM): 0.9282
Burkin Assay in Myoblasts, signal relative to DMSO ([1]; 20 uM): 0.8408
Burkin Assay in Myoblasts, signal relative to DMSO ([1]; 40 uM): 0.7704
Burkin Assay in Myotubes, α7 integrin LacZ reporter signal relative to DMSO ([2]; 0.5 uM): 1.057
Burkin Assay in Myotubes, α7 integrin LacZ reporter signal relative to DMSO ([2]; 1 uM): 1.019
Burkin Assay in Myotubes, α7 integrin LacZ reporter signal relative to DMSO ([2]; 5 uM): 1.042
Burkin Assay in Myotubes, α7 integrin LacZ reporter signal relative to DMSO ([2]; 10 uM): 1.0906
Burkin Assay in Myotubes, α7 integrin LacZ reporter signal relative to DMSO ([2]; 20 uM): 1.051
Burkin Assay in Myotubes, α7 integrin LacZ reporter signal relative to DMSO ([2]; 40 uM): 0.986
CMV-LACZ in Myotubes, signal relative to DMSO [3, 4]: 0.9658
CMV-LACZ in Myotubes, signal relative to DMSO [3, 5]: 0.9933
CMV-LACZ in Myotubes, signal relative to DMSO [3, 6]: 0.8214
CMV-LACZ in Myotubes, signal relative to DMSO [3, 7]: 1.2

CC1CCCCN1c1ncnc(N)c1[N+](=O)[O-] (stereo not drawn) [MLS000683234-01]
Burkin Assay in Myoblasts, signal relative to DMSO ([1]; 0.5 uM): 1.187
Burkin Assay in Myoblasts, signal relative to DMSO ([1]; 1 uM): 0.8341
Burkin Assay in Myoblasts, signal relative to DMSO ([1]; 5 uM): 1.134
Burkin Assay in Myoblasts, signal relative to DMSO ([1]; 10 uM): 1.152
Burkin Assay in Myoblasts, signal relative to DMSO ([1]; 20 uM): 1.067
Burkin Assay in Myoblasts, signal relative to DMSO ([1]; 40 uM): 1.21
Burkin Assay in Myotubes, α7 integrin LacZ reporter signal relative to DMSO ([2]; 0.5 uM): 0.9165
Burkin Assay in Myotubes, α7 integrin LacZ reporter signal relative to DMSO ([2]; 1 uM): 1.053
Burkin Assay in Myotubes, α7 integrin LacZ reporter signal relative to DMSO ([2]; 5 uM): 1.091
Burkin Assay in Myotubes, α7 integrin LacZ reporter signal relative to DMSO ([2]; 10 uM): 1.273
Burkin Assay in Myotubes, α7 integrin LacZ reporter signal relative to DMSO ([2]; 20 uM): 1.414
Burkin Assay in Myotubes, α7 integrin LacZ reporter signal relative to DMSO ([2]; 40 uM): 1.631
CMV-LACZ in Myotubes, signal relative to DMSO [3, 4]: 0.8204
CMV-LACZ in Myotubes, signal relative to DMSO [3, 5]: 0.8111
CMV-LACZ in Myotubes, signal relative to DMSO [3, 6]: 0.6952
CMV-LACZ in Myotubes, signal relative to DMSO [3, 7]: 0.93

C=CCN(CC=C)C(=O)c1ccc(OC2CCN(S(=O)(=O)N(C)C)CC2)cc1 [MLS000693729-01]
Burkin Assay in Myoblasts, value relative to DMSO ([1]; 0.5 uM): 0.9069
Burkin Assay in Myoblasts, value relative to DMSO ([1]; 1 uM): 0.7902
Burkin Assay in Myoblasts, value relative to DMSO ([1]; 5 uM): 0.8647
Burkin Assay in Myoblasts, value relative to DMSO ([1]; 10 uM): 0.9088
Burkin Assay in Myoblasts, value relative to DMSO ([1]; 20 uM): 0.9136
Burkin Assay in Myoblasts, value relative to DMSO ([1]; 40 uM): 0.9194
Burkin Assay in Myotubes (signal relative to DMSO) ([2]; 0.5 uM): 0.8219
Burkin Assay in Myotubes (signal relative to DMSO) ([2]; 1 uM): 0.7707
Burkin Assay in Myotubes (signal relative to DMSO) ([2]; 5 uM): 1.119
Burkin Assay in Myotubes (signal relative to DMSO) ([2]; 10 uM): 1.144
Burkin Assay in Myotubes (signal relative to DMSO) ([2]; 20 uM): 0.9682
Burkin Assay in Myotubes (signal relative to DMSO) ([2]; 40 uM): 1.056
CMV-LACZ in Myotubes, signal relative to DMSO [3, 4]: 0.9722
CMV-LACZ in Myotubes, signal relative to DMSO [3, 5]: 1.057
CMV-LACZ in Myotubes, signal relative to DMSO [3, 6]: 0.9031
CMV-LACZ in Myotubes, signal relative to DMSO [3, 7]: 0.879
